Results published in patent publication US20200061215A1, “MALTOTRIOSE-BASED PROBES FOR FLUORESCENCE AND PHOTOACOUSTIC IMAGING OF BACTERIA” (The Board of Trustees of the Leland Stanford Junior …, priority 2018, published 2020).

Legend:
E. coli = assay: Bacteria competition assay with 3H-maltose; format: cell-based; settings: test compound 1 mM, 1 hr at 37° C., then 3H-maltose 30 min
Experimental: A competition binding assay between the synthesized derivatives and ^3H-maltose that is taken up in bacteria by the ABC transporter, was conducted.
Aliquots of 10^8 colony forming units (CFU) of E. coli were first incubated with test compounds (1 mM) for 1 hr at 37° C. After the first incubation, the bacteria culture was centrifuged at 10,000 rpm for 5 min and pellet washed with 1×HBSS three times. Pellets were suspended in a solution of ^3H-maltose (1 μCi in 200 μL HBSS (1×); American Radiolabeled Chemicals, Inc., USA) and incubated for 30 min at 37° C. Aliquots were centrifuged and washed with 1×HBSS three times before lysing in a bacterial lysis buffer (BugBuster, EMD, Billerica Mass. USA). Activity in bacteria lysates was then counted in a […] and protein concentration determined using a bicinchoninic acid (BCA) assay (Pierce, Thermo Fisher Scientific). Test compounds included maltose as a positive control, azide-1-maltotriose/maltohexose and Cy7-1-maltotriose/maltohexose. In addition, aliquots incubated with only ^3H-maltose were also included to assess normal uptake. Results are shown as counts per minute (cpm) normalized to protein content (μg of protein) per sample (n=3 per study).

Stability in PBS = format: physicochemical; settings: 37° C., up to 24 hr
Experimental: Compound 3a or 3b (100 μM) was incubated in either PBS (1×), murine, human, or rat plasma at 37° C. for up to 24 h. At each time point (0, 2, 4, 10 and 24 h), a 100 μL aliquot of the mixture was taken and added to an ice-cold acetonitrile solution (200 μL) and vortexed for 10 seconds. Samples were then centrifuged and the supernatant analyzed on the analytical HPLC column (HPLC method). […] Monitoring was at 750 nm and the area of any observed peak was assessed in each HPLC chromatogram. Bar plot representation of the compound stability is shown as % intact where

S. aureus-infected wound = assay: Fluorescence and bioluminescence imaging in S. aureus wound-infection murine model; format: in vivo, mice; settings: treated group, vancomycin for 7 days
Experimental: Female CD1 or SKH1 elite mice, 6-8 weeks old were anesthetized by isoflurane inhalation (2-3%). A small wound on the upper or lower back of the mice was formed using a sharp pair of scissors. 10^8 CFU, 10^6 CFU, or 10^4 CFU Staphylococcus aureus in 20 μL saline was inoculated into a small pocket subcutaneously before sealing the wound with Vetbond adhesive (1469SB; 3M).
After subcutaneous inoculation of 10^8 CFU (n=5), 10^6 CFU (n=3) and 10^4 CFU (n=3) of S. aureus in the wound, Cy7-1-maltotriose (5 nmol in 2% DMSO/saline, 100 μL injection) was injected via the tail vein. To insure no other infections occur, a daily dose of kanamycin (800 mg/kg) was given to the mice intramuscularly. Fluorescence and bioluminescence images were then captured at 5 and 20 hr post injection of the probe. Image analysis was conducted using Living Image® software.
Fluorescence and Bioluminescence Imaging: After subcutaneous inoculation of 10^6 CFU (n=9) of kanamycin-resistant S. aureus in the wound, mice were administered kanamycin (800 mg/kg) intramuscularly once daily to insure no other bacterial infections occur. Two days after surgery, Cy7-1-maltotriose (10 nmol in 2% DMSO/saline, 200 μL injection) was injected via the tail vein and bioluminescence and fluorescence imaging were performed at 19, 45, 69, 93 and 144 hrs post injection. […]

[1] = Plasma stability, human plasma; format: in vitro ADME; settings: 37° C.
Experimental: Samples were then centrifuged and the supernatant analyzed on the analytical HPLC column (HPLC method). […] Monitoring was at 750 nm and the area of any observed peak was assessed in each HPLC chromatogram.

Compound | 3H-maltose uptake in E. coli when pre-incubated with test compound (E. coli) | stability in PBS (Stability in PBS) | S. aureus infection in wound after treatment (FLI image, confirmed by BLI) (S. aureus-infected wound) | degradation in human plasma [1]
OC[C@H]1O[C@H](O[C@H]2[C@H](O)[C@@H](O)C(O)O[C@@H]2CO)[C@H](O)[C@@H](O)[C@@H]1O (mixture of isomers) [maltose] | significant reduction | – | – | –
OC[C@H]1O[C@H](O[C@H]2[C@H](O)[C@@H](O)[C@@H](O[C@H]3[C@H](O)[C@@H](O)[C@@H](O[C@H]4[C@H](O)[C@@H](O)[C@@H](O[C@H]5[C@H](O)[C@@H](O)[C@@H](O[C@H]6[C@H](O)[C@@H](O)C(O)O[C@@H]6CO)O[C@@H]5CO)O[C@@H]4CO)O[C@@H]3CO)O[C@@H]2CO)[C@H](O)[C@@H](O)[C@@H]1O (stereo partly shown) [maltohexose] | significant reduction | stable | – | –
CN[C@H](CC(C)C)C(=O)N[C@H]1C(=O)N[C@@H](CC(N)=O)C(=O)N[C@H]2C(=O)N[C@H]3C(=O)N[C@H](C(=O)N[C@H](C(=O)O)c4cc(O)cc(O)c4-c4cc3ccc4O)[C@H](O)c3ccc(c(Cl)c3)Oc3cc2cc(c3O[C@@H]2O[C@H](CO)[C@@H](O)[C@H](O)[C@H]2O[C@H]2C[C@](C)(N)[C@H](O)[C@H](C)O2)Oc2ccc(cc2Cl)[C@H]1O [vancomycin] | – | – | complete disappearance of S. aureus infection | –
maltotriose | significant reduction | stable | – | no degradation
